Measured values: publication PMC9313321 (Biomedicines, 2022)

What was measured:
Aβ42 self-aggregation = molecular target: T1, Aβ42 self-aggregation (Homo sapiens, UniProt P05067); assay: biochemical; type: biochemical; details: read-out: Aβ42 Self-Aggreg. Inhib
T1 construct: Beta-amyloid protein, fragment 1-42; purchased GeneCust
Protocol: (§1) The inhibition of Aβ42 aggregation and Cu(II)-induced Aβ42 aggregation, carried out by the RIV–BIM hybrids, was studied using a reported method based on the fluorescence emission of thioflavin T [52, 53].
(§2) Solutions of phosphate buffer 0.215 M at pH = 8.00, Na2CO3 300 μM in distilled water, NaOH 250 mM in distilled water, glycine-NaOH 50 mM buffer at pH = 8.50 and CuCl2 240 μM in phosphate buffer were prepared. Stock solutions of […] of the RIV–BIM compounds were prepared in MeOH (with 20% DMSO). Working solutions of 240 μM of the RIV–BIM hybrids were prepared by the proper dilution of their stock solutions with phosphate buffer. A working solution of glycine-NaOH 50 mM buffer at pH = 8.50 containing 5 μM of thioflavin T (ThT) was prepared daily. Aβ42 (GeneCust) was pre-treated with 1,1,1,3,3,3-hexafluoro-2-propanol (HFIP) to obtain a solution of 0.149 mM by brief sonication and vortexing, which was kept covered overnight at room temperature. From the Aβ42 solution, aliquots of 250 μL were placed into Eppendorf tubes under ice and set to evaporate inside a hood at room temperature overnight. When the contents of the Eppendorf tubes were dried, the Aβ42 aliquots were stored at −20 °C until needed. To obtain the Aβ42 working solution, the Aβ42 aliquots were dissolved with a freshly prepared mixture of 69.5 μL of CH3CN/Na2CO3 (300 μM)/NaOH (250 mM) (48.3/48.3/3.4, v/v/v) by brief sonication and vortexing to obtain an Aβ42 solution of 531.24 μM. To this solution, 392.5 μL of phosphate buffer was added, achieving an Aβ42 working solution of 80 μM. To prepare the incubations, three replicates of Aβ42 alone (30 μL Aβ42 80 μM + 30 μL phosphate buffer), Aβ42 with RIV–BIM (30 μL Aβ42 80 μM + 10 μL RIV–BIM 240 μM + 20 μL phosphate buffer), Aβ42 with copper (30 μL Aβ42 80 μM + 10 μL CuCl2 240 μM + 20 μL phosphate buffer) and Aβ42 with copper and RIV–BIM (30 μL Aβ42 80 μM + 10 μL CuCl2 240 μM + 10 μL RIV–BIM 240 μM + 10 μL phosphate buffer) were placed in Eppendorfs. To obtain the blank solutions, a similar number of Eppendorfs, replacing Aβ42 with phosphate buffer, were prepared. Incubations were performed in a water bath at 37 °C with agitation for 24 h. Afterwards, 180 μL of glycine-NaOH 50 mM buffer at pH = 8.50 containing 5 μM of ThT was added to each Eppendorf and then they were vortexed. Finally, 200 μL of solution from each Eppendorf was placed in the wells of a microplate and fluorescence measurements were monitored using a Spectramax Gemini EM (Molecular Devices) fluorimeter with an excitation wavelength of 446 nm and an emission wavelength of 485 nm. Blank signals were subtracted from the corresponding samples. The fluorescence intensity of the Aβ42 + RIV–BIM solution was compared to that of the Aβ42 solution to obtain the inhibition of Aβ42 self-aggregation for each compound. The fluorescence intensity of the Aβ42 + Cu(II) + RIV–BIM solution was compared to that of the Aβ42 + Cu(II) solution to obtain the inhibition of the Cu(II)-induced Aβ42 aggregation for each hybrid.
(§3) The anti-amyloidogenic capacity of the compounds was assessed in vitro using the thioflavin T (ThT) method. To record fluorescence emission, excitation (446 nm) and emission (485 nm) wavelengths were used. When ThT binds to amyloid fibrils, an increase in absorbance and emission of this dye occurs with concomitant red shifts of the respective spectra. The percent of inhibition of Aβ42 aggregation is shown in Table 1, and the assays were performed in the presence of 20 μM of inhibitor. These concentration conditions were used to overcome solubility problems of some compounds in the aqueous phosphate buffer working medium. […]. […]

[1] = molecular target: T2, Cu(II)-induced Aβ42 aggregation (Homo sapiens, UniProt P05067); assay: Inhibition of Cu(II)-induced Aβ42 aggregation (thioflavin T fluorescence); type: biochemical; details: read-out: Aβ42 Cu-Ind. Aggreg. Inhib
T2 construct: Beta-amyloid protein, fragment 1-42; purchased GeneCust
Protocol: as §1, §2, §3

Aβ = system: Aβ; parameters: method as in PMID 32781220; details: 50 μM concentration; cited from earlier work
[2] = Radical scavenging activity (DPPH method); details: read-out: Antioxid. EC50, 30 min, absorbance 517 nm
Protocol: To determine the radical scavenging activity (antioxidant activity) of the novel RIV–BIM hybrids, the DPPH method was performed as previously described in the literature [49]. Working solutions of 20 mg of the ligands were prepared daily in 10 mL of MeOH (with a 10% of DMSO). A working solution of 2 mg DPPH in 100 mL MeOH was prepared daily, and its absorbance was checked to be between 0.75 and 1.00 (a.u.). […] Each one of the calibrate points was kept for 30 min under darkness to allow the ligands to exert their antioxidant effects. After 30 min, an auto-zero was performed with MeOH in both sample and reference cells, using a UV–Vis spectrophotometer. […] The antioxidant activity (%AA) for each point was calculated using the following equation: %AA=ADPPH−Aligand/ADPPH×100
The radical scavenging activity of the RIV–BIM compounds was determined by a spectrophotometric method involving the 2,2-diphenyl-1-picrylhydrazyl (DPPH) free radical [35, 64].

T1 sequence (P05067 672-713 limits assumed): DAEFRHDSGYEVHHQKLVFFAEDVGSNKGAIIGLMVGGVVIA
T2 sequence (P05067 672-713 limits assumed): as above

Row | SMILES | inhibition at 20 µM (Aβ42 self-aggregation) [%] | inhibition at 20 µM [1] [%] | Aβ inhibition (Aβ) [%] | EC50 [2] [µM]
1 | Nc1c2c(nc3ccccc13)CCCC2 [Tacrine, reference compound] | 28.1 | – | – | –
2 | COc1cc(/C=C/C(=O)CC(=O)/C=C/c2ccc(O)c(OC)c2)ccc1O [Curcumin, reference compound] | 65.7 | 62.7 | 62 | –
3 | Cc1c(O)c(=O)ccn1C [DMHP, reference compound] | – | – | – | 157 ± 8
